Tested on: chick chorioallantoic membrane (CAM)
Assay: Chick chorioallantoic membrane (CAM) assay of angiogenesis
Type: in vivo
Details: 10^−7-10^−9 M
Protocol: Chorioallantoic membrane (CAM) Model of Angiogenesis: In vivo Neovascularization was examined by methods described previously. 9-12 Ten-day-old chick embryos were purchased from SPAFAS (Preston, Conn.) and incubated at 37° C. with 55% relative humidity. A hypodermic needle was used to make a small hole in the shell concealing the air sac, and a second hole was made on the broad side of the egg, directly over an avascular portion of the embryonic membrane that was identified by candling. A false air sac was created beneath the second hole by the application of negative pressure at the first hole, causing the CAM to separate from the shell. A window approximately 1.0 cm 2 was cut in the shell over the dropped CAM with a small-crafts grinding wheel (Dremel, division of Emerson Electric Co.), allowing direct access to the underlying CAM. FGF2 (1 μg/mL) was used as a standard proangiogenic agent to induce new blood vessel branches on the CAM of 10-day-old embryos. Sterile disks of No. 1 filter paper (Whatman International) were pretreated with 3 mg/mL cortisone acetate and 1 mmol/L PTU and air dried under sterile conditions. Thyroid hormone, hormone analogues, FGF2 or control solvents, and inhibitors were then applied to the disks and the disks allowed to dry. The disks were then suspended in PBS and placed on growing CAMs. […] At 24 hours, the MAPK cascade inhibitor PD 98059 was also added to CAMs topically by means of the filter disks.
After incubation at 37° C. with 55% relative humidity for 3 days, the CAM tissue directly beneath each filter disk was resected from control and treated CAM samples. Tissues were washed 3× with PBS, placed in 35-mm Petri dishes (Nalge Nunc), and examined under an SV6 stereomicroscope (Zeiss) at ×50 magnification. Digital images of CAM sections exposed to filters were collected using a 3-charge-coupled device color video camera system (Toshiba) and analyzed with Image-Pro software (Media Cybernetics). The number of vessel branch points contained in a circular region equal to the area of each filter disk were counted. One image was counted in each CAM preparation, and findings from 8 to 10 CAM preparations were analyzed for each treatment condition (thyroid hormone or analogues, FGF2, FGF2 antibody, PD 98059). In addition, each experiment was performed 3 times. The resulting angiogenesis index is the mean±SEM of new branch points in each set of samples.
Ten-day-old chick embryos were purchased £tom SPAFAS (Preston, Conn.) and were incubated at 37° C. with 55% relative humidity. A hypodermic needle was used to make a small hole in the blunt end of the egg and a second hole was made on the broad side of the egg, directly over an avascular portion of the embryonic membrane. Mild suction was applied to the first hole to displace the air sac and drop the CAM away from the shell. Using a Dremel model craft drill (Dremel, Racine, Wis.), a approx. 1.0 cm^2 window was cut in the shell over the false air sac, allowing access to the CAM. Sterile disks of No. 1 filter paper (Whatman, Clifton, N.J.) were pretreated with 3 mg/ml cortisone acetate and 1 mMm propylthiouracil and air dried under sterile conditions. […] The disks were then suspended in PBS and placed on growing CAMS. After incubation for 3 days, the CAM beneath the filter disk was resected and rinsed with PBS. Each membrane was placed in a 35 mm Petri dish and examined under an SV6 stereo-microscope at 50× magnification. Digital images were captured and analyzed with Image-Pro software (Mediacybemetics). The number of vessel branch points contained in a circular region equal to the filter disk were counted. One image from each of 8-10 CAM preparations for each treatment condition was counted, and in addition each experiment was performed 3 times.
Ten-day-old chick embryos were purchased from SPAFAS (Preston, Conn.) and were incubated at 37° C. with 55% relative humidity. Chick CAM assays were performed as previously described.

N[C@@H](Cc1cc(I)c(Oc2cc(I)c(O)c(I)c2)c(I)c1)C(=O)O [T4, L-thyroxine]
promotion of generation of new blood vessels from existing vessels: two- to three-fold
